{"source": "patent US11230535B2", "about": "“CFTR regulators and methods of use thereof” (THE REGENTS OF THE UNIVERSITY OF CALIFORNIA, priority 2015, dated 2022)", "format_in_all_cases": "cell-based", "key": {"human wild-type CFTR": {"molecular_target": "human wild-type CFTR (Homo sapiens, UniProt P13569)", "sequence (P13569 whole entry)": "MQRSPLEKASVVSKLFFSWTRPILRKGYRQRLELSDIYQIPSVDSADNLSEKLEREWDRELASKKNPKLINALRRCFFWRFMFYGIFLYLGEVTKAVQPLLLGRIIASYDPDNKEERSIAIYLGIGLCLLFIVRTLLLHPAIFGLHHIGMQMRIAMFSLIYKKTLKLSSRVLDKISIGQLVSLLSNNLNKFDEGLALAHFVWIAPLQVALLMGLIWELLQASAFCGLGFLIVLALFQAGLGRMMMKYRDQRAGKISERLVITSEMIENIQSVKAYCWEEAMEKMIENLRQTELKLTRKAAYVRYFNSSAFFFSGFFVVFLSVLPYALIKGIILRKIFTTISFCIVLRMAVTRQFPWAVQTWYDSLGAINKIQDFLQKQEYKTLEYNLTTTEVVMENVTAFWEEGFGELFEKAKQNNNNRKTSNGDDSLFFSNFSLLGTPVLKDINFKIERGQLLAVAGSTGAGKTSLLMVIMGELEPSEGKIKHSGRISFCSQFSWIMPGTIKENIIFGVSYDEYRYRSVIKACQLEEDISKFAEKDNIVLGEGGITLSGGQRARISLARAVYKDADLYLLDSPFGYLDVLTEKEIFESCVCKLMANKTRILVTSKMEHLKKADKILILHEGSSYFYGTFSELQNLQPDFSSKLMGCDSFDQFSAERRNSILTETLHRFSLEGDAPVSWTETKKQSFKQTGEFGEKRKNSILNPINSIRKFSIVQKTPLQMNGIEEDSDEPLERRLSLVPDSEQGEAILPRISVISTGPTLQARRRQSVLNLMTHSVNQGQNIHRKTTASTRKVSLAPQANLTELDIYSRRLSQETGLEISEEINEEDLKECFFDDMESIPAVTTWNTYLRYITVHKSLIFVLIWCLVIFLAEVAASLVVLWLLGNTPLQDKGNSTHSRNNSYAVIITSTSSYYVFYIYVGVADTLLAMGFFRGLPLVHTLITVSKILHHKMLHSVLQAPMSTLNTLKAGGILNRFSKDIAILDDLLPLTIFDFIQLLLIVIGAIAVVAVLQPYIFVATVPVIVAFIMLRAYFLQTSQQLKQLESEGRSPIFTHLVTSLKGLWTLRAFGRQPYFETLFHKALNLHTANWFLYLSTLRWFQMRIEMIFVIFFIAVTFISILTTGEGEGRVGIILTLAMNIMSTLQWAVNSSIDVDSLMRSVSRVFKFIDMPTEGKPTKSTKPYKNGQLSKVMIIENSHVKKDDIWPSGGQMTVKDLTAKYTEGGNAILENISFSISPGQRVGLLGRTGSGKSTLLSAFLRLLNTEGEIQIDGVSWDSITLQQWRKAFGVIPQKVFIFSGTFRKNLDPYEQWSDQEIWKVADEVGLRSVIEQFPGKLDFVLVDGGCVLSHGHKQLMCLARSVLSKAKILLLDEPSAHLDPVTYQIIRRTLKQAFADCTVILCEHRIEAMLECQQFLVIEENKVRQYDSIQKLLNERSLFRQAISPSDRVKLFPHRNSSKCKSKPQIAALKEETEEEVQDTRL", "experiment": "Short-circuit current in FRT cells expressing wild-type human CFTR", "set-up": "expressed in transfected cells", "procedure": "Short-circuit current was measured in FRT cells stably expressing wild-type human CFTR cultured on porous filters as described. The basolateral solution contained 130 mM NaCl, 2.7 mM KCl, 1.5 mM KH2PO4, 1 mM CaCl2, 0.5 mM MgCl2, 10 mM glucose, and 10 mM Na-HEPES (pH 7.3, 37° C.). In the apical solution 65 mM NaCl was replaced by Na gluconate, and CaCl2 was increased to 2 mM, and the basolateral membrane was permeabilized with 250 μg/ml amphotericin B. Short-circuit current was measured in freshly harvested adult mouse colon at 37° C. using symmetrical Krebs-bicarbonate buffer.\n(§1) Fischer rat thyroid (FRT) cells stably expressing wild-type human CFTR were cultured on Snapwell inserts (Corning Costar, Corning N.Y., USA) for short-circuit current (Isc) measurements. After 6-9 days in culture, when the transepithelial resistance was >1000 Ω/cm^2, the inserts were mounted in an Ussing chamber system (World Precision Instruments, Sarasota, Fla., USA). The basolateral solution contained 130 mM NaCl, 2.7 mM KCl, 1.5 mM KH2PO4, 1 mM CaCl2, 0.5 mM MgCl2, 10 mM glucose, and 10 mM Na-HEPES (pH 7.3). In the apical bathing solution, 65 mM NaCl was replaced by Na gluconate, and CaCl2 was increased to 2 mM. Both solutions were bubbled with air and maintained at 37° C. The basolateral membrane was permeabilized with 250 μg/ml amphotericin B (26, 27). Hemichambers were connected to a DVC-1000 voltage clamp via Ag/AgCl electrodes and 3 M KCl agar bridges for Isc recording.\nShort-circuit current measurement. Short-circuit current was measured in FRT cells stably expressing wild-type human CFTR cultured on porous filters as described. The basolateral solution contained 130 mM NaCl, 2.7 mM KCl, 1.5 mM KH2PO4, 1 mM CaCl2, 0.5 mM MgCl2, 10 mM glucose, and 10 mM Na-HEPES (pH 7.3, 37° C.). In the apical solution 65 mM NaCl was replaced by Na gluconate, and CaCl2 was increased to 2 mM, and the basolateral membrane was permeabilized with 250 μg/ml amphotericin B. Short-circuit current was measured in freshly harvested adult mouse colon at 37° C. using symmetrical Krebs-bicarbonate buffer.\nas §1, with “Short-circuit current. Fischer” for “Fischer”\n(§2) Short-circuit current measurement. Short-circuit current measurements were done as described. Briefly, Snapwell (Corning Costar, Corning, N.Y.) inserts containing CFTR-expressing FRT cells or human bronchial epithelial cells were mounted in Ussing chambers (Physiological Instruments, San Diego, Calif.). For FRT cells the hemichambers were filled with 5 ml of HCO3^−-buffered solution (basolateral) and half-Cl^− solution (apical), and the basolateral membrane was permeabilized with 250 μg/ml amphotericin B. Symmetrical HCO3^−-buffered solutions were used for human bronchial epithelial cells. Solutions were bubbled with 95% O2/5% CO2 and maintained at 37° C., and short-circuit current was measured on a DVC-1000 voltage clamp (World Precision Instruments Inc., Sarasota, Fla.) using Ag/AgCl electrodes and 3 M KCl agar bridges."}, "CaCC in HT-29 cells": {"system": "CaCC in HT-29 cells", "experiment": "Non-TMEM16A CaCC plate reader assay in HT-29 cells expressing YFP", "settings": "10 μM", "procedure": "Platereader assays of chloride channel function. CFTR activity was assayed as described. FRT cells co-expressing YFP and wildtype CFTR were washed with phosphate-buffered saline (PBS) and then incubated for 10 min with test compounds in PBS containing 125 nM forskolin. I^− influx was measured in a plate reader with initial baseline read for 2 s and then for 12 s after rapid addition of an I^−-containing solution. TMEM16A activity was assayed similarly as described using FRT cells co-expressing YFP and TMEM16A. Activity of non-TMEM16A CaCC was assayed as described in HT-29 cells expressing YFP. In each assay initial rates of I^− influx were computed as a linear measure of channel function."}, "[1]": {"system": "human bronchial epithelial (HBE) cells", "experiment": "Short-circuit current in primary human bronchial epithelial (HBE) cells", "settings": "for short-circuit current responses to ENaC, maximal forskolin or ATP: 10 μM, 10 min pretreatment", "procedure": "FIGS. 16A-16E. Characterization of 6k and 12. FIG. 16A. Cellular cAMP in FRT cells following incubation for 10 min with 10 μM 6k or 12, without or with 90 nM forskolin (fsk), as well as forskolin alone (90 nM and 20 μM) and forskolin (20 μM)+IBMX (100 μM) (mean±S.E.M., n=4). FIG. 16B. Cytoplasmic calcium measured by Fluo-4 fluorescence. FRT cells were pretreated for 5 min with 10 μM 6k or 12 (or control), with 100 μM ATP added as a calcium agonist as indicated. FIG. 16C. TMEM16A activity measured in FRT cells expressing YFP showing no inhibition (left, iodide+ATP addition) or activation (right, iodide addition) by 10 μM 6k or 12. FIG. 16D. […] FIG. 16E. (left) Short circuit-current in primary cultures of human bronchial epithelial cells in response to agonists and inhibitors that target key ion transport processes: 20 μM amiloride (ami); 20 μM forskolin (fsk); 10 μM CFTRinh-172; 100 μM ATP. Experiments were done without activator or following 10-min preincubation with 10 μM 6k or 12 (right). CFTR activation by 12 after 100 nM forskolin (20 μM amil, 10 μM CFTRinh-172, 100 μM ATP). Studies in B-E are representative of 2-4 separate sets of experiments.\nas §2"}, "[2]": {"settings": "FRT cells expressing human wild-type CFTR"}, "[3]": {"settings": "FRT cells expressing human wild-type CFTR, read-out: EC50 for CFTR activation (short-circuit current)"}}, "note": "“Also recorded” adds a separate entry of the source. Like-named read-outs stand apart in the source and are kept apart here."}
{"smiles": "CCN(CC)c1nc(Nc2ccccc2)nc(OC(C(F)(F)F)C(F)(F)F)n1", "note": "[CFTRact-K089, N,N-Diethyl-6-[(1,1,1,3,3,3-hexafluoropropan-2-yl)oxy]-N′-phenyl-1,3,5-triazine-2,4-diamine]", "values": [{"measurement": "CFTR activation, Vmax", "setting": "human wild-type CFTR; 100% = 20 μM forskolin", "result": "~50", "unit": "% Vmax"}, {"measurement": "CFTR activation (short-circuit current), in words", "setting": "human wild-type CFTR; [2]", "result": "fully activated CFTR"}, {"measurement": "EC50", "setting": "human wild-type CFTR; [3]", "result": "~250", "unit": "nM"}]}
{"smiles": "CC(C)(C)c1cc(C(C)(C)C)c(NC(=O)c2c[nH]c3ccccc3c2=O)cc1O", "note": "[VX-770, reference compound]", "values": [{"measurement": "CFTR activation (short-circuit current), in words", "setting": "human wild-type CFTR; [2]", "result": "relatively little activity; also recorded: relatively weak activity"}]}
{"smiles": "CNc1nc(Nc2ccccc2)nc(OCC(F)(F)C(F)F)n1", "note": "[compound 12, N-methyl-N′-phenyl-6-(2,2,3,3-tetrafluoropropoxy)-1,3,5-triazine-2,4-diamine]", "values": [{"measurement": "effect on calcium-activated chloride channels in HT-29 cells", "setting": "CaCC in HT-29 cells", "result": "no activation; also recorded: neither inhibited nor activated"}, {"measurement": "CFTR activation in HBE cells after forskolin", "setting": "[1]; 0.1 μM, following 100 nM forskolin", "result": "fully activated CFTR"}, {"measurement": "short-circuit current responses to ENaC, maximal forskolin or ATP", "setting": "[1]", "result": "did not alter short-circuit current responses"}, {"measurement": "CFTR activation in HBE cells without forskolin", "setting": "[1]; absence of basal CFTR phosphorylation", "result": "did not activate CFTR"}, {"measurement": "EC50", "setting": "human wild-type CFTR", "result": "~30", "unit": "nM"}, {"measurement": "CFTR activation (short-circuit current), in words", "setting": "human wild-type CFTR; [2]", "result": "fully activated CFTR chloride conductance; also recorded: full CFTR activation"}, {"measurement": "EC50", "setting": "human wild-type CFTR; [3]", "result": 31, "unit": "nM"}]}
{"smiles": "CCN(CC)c1nc(Nc2ccc3ncsc3c2)nc(OC(C(F)(F)F)C(F)(F)F)n1", "note": "[6k, N′-(1,3-Benzothiazol-6-yl)-N,N-diethyl-6-[(1,1,1,3,3,3-hexafluoropropan-2-yl)oxy]-1,3,5-triazine-2,4-diamine]", "values": [{"measurement": "effect on calcium-activated chloride channels in HT-29 cells", "setting": "CaCC in HT-29 cells", "result": "no activation; also recorded: neither inhibited nor activated"}, {"measurement": "short-circuit current responses to ENaC, maximal forskolin or ATP", "setting": "[1]", "result": "did not alter short-circuit current responses"}, {"measurement": "CFTR activation (short-circuit current), in words", "setting": "human wild-type CFTR; [2]", "result": "full CFTR activation"}, {"measurement": "EC50", "setting": "human wild-type CFTR; [3]", "result": 30, "unit": "nM"}]}
{"smiles": "Nc1ccc([N+](=O)[O-])cc1-c1nc2ccccc2n(Cc2ccccc2)c1=O", "note": "[CFTRact-J027, 3-(2-amino-5-nitrophenyl)-1-benzylquinoxalin-2(1H)-one]", "values": [{"measurement": "activation of CFTR at 3 μM", "setting": "human wild-type CFTR; 3 μM, wild-type CFTR, FRT cells", "result": "nearly full activation"}, {"measurement": "CFTR activation (short-circuit current), in words", "setting": "human wild-type CFTR; [2]", "result": "fully activated CFTR chloride conductance"}]}
